One block for each compound: values may come before it.
Experiments:
[1] = Volatility of perfuming compounds (Tables 4 to 10), with top/middle/bottom note type; assay type: physicochemical
Method in brief: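 Note type follows from air volatility (μg/l): bottom 49–0.1, middle 99–50, top 70,000–100. Compounds are listed within watery, green, fruity, citrus, sweet, gourmand and woody families.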

[2] = Odor threshold and odor value of perfuming compounds (Tables 4 to 10)
[3] = Table 6, perfuming compounds having a fruity note
[4] = Table 6, perfuming compounds having a fruity note, note type by volatility
[5] = Table 10, perfuming compounds having a woody note, note type by volatility
[6] = note type (Top/Middle/Bottom) by volatility, perfuming compounds having a green note
[7] = perfuming compounds having a green note
[8] = Table 8, perfuming compounds having a sweet note
[9] = Table 8, perfuming compounds having a sweet note, note type by volatility
[10] = Table 9, perfuming compounds having a gourmand note, note type by volatility
[11] = Table 4, watery note, top, middle or bottom note
[12] = Table 4, watery note, equals volatility divided by odor threshold

Volatility [1, 3]: 17.59 μg/l air
Type [1, 4]: Bottom
Compound: COc1ccc(COC(C)=O)cc1 [4-METHOXYBENZYL ACETATE]
Odor Threshold [2, 3]: 9.24E−05 μg/l air
Odor Value [2, 3]: 1.90E+05

Type [1, 5]: Bottom
Volatility ([1]; Table 10, woody note): 5.04 μg/l air
Compound: CCOC(C)OC1CCCCCCCCCCC1 (racemic) [(+−)-(1-ethoxyethoxy)cyclododecane]
Odor Threshold ([2]; Table 10, woody note): 2.51E−02 μg/l air

Type [1, 6]: Top
Volatility (μg/l air) [1, 7]: 2070.00 μg/l air
Compound: CCCCCCO [1-hexanol]
Odor Threshold (μg/l air) [2, 7]: 1.17E−01 μg/l air

Type [1, 5]: Bottom
Volatility ([1]; Table 10, woody note): 3.69 μg/l air
Compound: CCC(=CCC1CC=C(C)C1(C)C)CO (racemic)
Odor Threshold ([2]; Table 10, woody note): 7.80E−05 μg/l air

Volatility [1, 3]: 21.05 μg/l air
Type [1, 4]: Bottom
Volatility [1, 8]: 21.05 μg/l air
Type [1, 9]: Bottom
Volatility ([1]; Table 9, gourmand note): 21.05 μg/l air
Type [1, 10]: Bottom
Compound: CCCCC[C@@H]1OC(=O)C[C@H]1C (racemic) [(+−)-TRANS-3-METHYL-4-NONANOLIDE]
Odor Threshold [2, 3]: 8.33E−04 μg/l air
Odor Value [2, 3]: 2.53E+04
Odor Threshold [2, 8]: 8.33E−04 μg/l air
Odor Value [2, 8]: 2.53E+04
Odor Threshold ([2]; Table 9, gourmand note): 8.33E−04 μg/l air

Type [1, 4]: Middle
Type [1, 6]: Middle
Volatility (μg/l air) [1, 7]: 79.23 μg/l air
Compound: CC(=O)OC/C=C(\C)CCC=C(C)C [(E)-3,7-DIMETHYL-2,6-OCTADIENYL ACETATE]
Odor Threshold [2, 3]: 3.57E−02 μg/l air
Odor Threshold (μg/l air) [2, 7]: 3.57E−02 μg/l air

Volatility [1, 3]: 2885.67 μg/l air
Type [1, 6]: Top
Volatility (μg/l air) [1, 7]: 2885.67 μg/l air
Compound: CCOC(=O)CC(C)=O
Type [1, 4]: TOP (perfuming compounds having a volatility ranging from 70,000 to 100 μg/l in air are referred to as “top notes”)
Odor Threshold (μg/l air) [2, 7]: 5.83E−02 μg/l air

Volatility (μg/l air) ([1]; Table 4, watery note): 91.76 μg/l air
Type [1, 6]: Middle
Volatility (μg/l air) [1, 7]: 91.76 μg/l air
Compound: CCCCCCC#CC(=O)OC [METHYL 2-NONYNOATE]
Type [1, 11]: middle (perfuming compounds having a volatility ranging from 99 to 50 μg/l in air are referred to as “middle notes”)
Odor Threshold (μg/l air) ([2]; Table 4, watery note): 1.60E−03 μg/l air
Odor Value [2, 12]: 5.74E+04
Odor Threshold (μg/l air) [2, 7]: 1.60E−03 μg/l air

Type [1, 6]: Bottom
Volatility (μg/l air) [1, 7]: 29.99 μg/l air
Compound: CC1CC(C)(C)OC(Cc2ccccc2)O1 (stereo not drawn)
Odor Threshold (μg/l air) [2, 7]: 5.26E−02 μg/l air

Volatility [1, 3]: 201.26 μg/l air
Volatility [1, 8]: 201.26 μg/l air
Type [1, 9]: Top
Volatility ([1]; Table 9, gourmand note): 201.26 μg/l air
Type [1, 10]: Top
Compound: CC(=O)OCCc1ccccc1 [2-PHENYLETHYL ACETATE]
Type [1, 4]: TOP (perfuming compounds having a volatility ranging from 70,000 to 100 μg/l in air are referred to as “top notes”)
Odor Threshold [2, 8]: 2.14E−03 μg/l air
Odor Value [2, 8]: 9.38E+04
Odor Threshold ([2]; Table 9, gourmand note): 2.14E−03 μg/l air

Type [1, 5]: Top
Volatility ([1]; Table 10, woody note): 135.00 μg/l air
Compound: C=C1C2CCC(C)(OCC)C1CCC2(C)C (racemic)
Odor Threshold ([2]; Table 10, woody note): 1.37E−01 μg/l air

Volatility [1, 3]: 23345.90 μg/l air
Type [1, 6]: Top
Volatility (μg/l air) [1, 7]: 23345.90 μg/l air
Compound: CCCCCC(=O)OC [METHYL HEXANOATE]
Type [1, 4]: TOP (perfuming compounds having a volatility ranging from 70,000 to 100 μg/l in air are referred to as “top notes”)
Odor Threshold (μg/l air) [2, 7]: 8.43E−02 μg/l air

Type [1, 5]: Bottom
Volatility ([1]; Table 10, woody note): 1.74 μg/l air
Compound: CC1(CO)CC1CC1CC2CC2(C)C1(C)C (stereo not drawn)
Odor Threshold ([2]; Table 10, woody note): 2.18E−06 μg/l air

Volatility ([1]; Table 9, gourmand note): 74.03 μg/l air
Type [1, 10]: Middle
Compound: C[C@@H]1CC[C@H]2[C@H](C)C(=O)O[C@@H]2C1
Odor Threshold ([2]; Table 9, gourmand note): 3.46E−05 μg/l air

Volatility (μg/l air) ([1]; Table 4, watery note): 5.87 μg/l air
Volatility [1, 3]: 5.87 μg/l air
Type [1, 4]: Bottom
Volatility (μg/l air) ([1]; Table 7, citrus note): 5.87 μg/l air
Type ([1]; Table 7, citrus note, top, middle or bottom note): Bottom
Compound: 8(9)-METHOXY-TRICYCLO[5.2.1.0(2,6)]DECANE-3(4)-CARBALDEHYDE
Type [1, 11]: bottom (perfuming compounds having a volatility ranging from 49 to 0.1 μg/l in air are referred to as “bottom notes”)
Odor Threshold (μg/l air) ([2]; Table 4, watery note): 4.02E−05 μg/l air
Odor Value [2, 12]: 1.46E+05
Odor Threshold [2, 3]: 4.02E−05 μg/l air
Odor Value [2, 3]: 1.46E+05
Odor Threshold (μg/l air) ([2]; Table 7, citrus note): 4.02E−05 μg/l air
Odor Value ([2]; Table 7, citrus note, equals volatility divided by odor threshold): 1.46E+05

Volatility [1, 3]: 3480.57 μg/l air
Type [1, 6]: Top
Volatility (μg/l air) [1, 7]: 3480.57 μg/l air
Compound: C=CC(C)=CCC=C(C)C
Type [1, 4]: TOP (perfuming compounds having a volatility ranging from 70,000 to 100 μg/l in air are referred to as “top notes”)
Odor Threshold (μg/l air) [2, 7]: 2.57E−02 μg/l air

Reference: US20240301319A1, “PERFUMING COMPOSITIONS” (FIRMNICH SA, priority 2017, published 2024)
